In data set [1] the test system is Hepatitis C virus. In words: Antiviral activity against HCV genotype 1a infected in human HuH7 cells assessed as reduction in viral RNA replication after 3 days in presence of human serum by Dual-Glo luciferase reporter gene assay. The data set is classed as functional, cell-based, Hepacivirus hominis. The conditions noted are these: subtype 1a, Huh-7, 72 h. In general terms: Reporter assays use an easily measured gene product as a stand-in for the process of interest.

Data set [2] has as its system Hepatitis C virus. As to the kind of experiment: Antiviral activity against HCV genotype 1a infected in human HuH7 cells assessed as reduction in viral RNA replication after 3 days by Dual-Glo luciferase reporter gene assay. The data set is classed as functional, cell-based, Hepacivirus hominis. The conditions noted are these: subtype 1a, Huh-7, 72 h.
Data set [3] in a line: Distribution constant, log D of compound at pH 6.5. The conditions noted are these: buffer. The data set is classed as physicochemical.
A short description of data set [4]: Clearance in rat at 2 mg/kg, iv or 6 mg/kg, po. It counts as ADME, organism-based. The conditions noted are these: in vivo.
Data set [5] in a line: Clearance in dog at 1 mg/kg, iv or 3 mg/kg, po. The conditions noted are these: in vivo. The data set is classed as ADME, organism-based, Canis lupus familiaris.
Data set [6] in a line: Clearance in cynomolgus monkey at 1 mg/kg, iv or 3 mg/kg, po. It counts as ADME, organism-based, Macaca fascicularis. The conditions noted are these: in vivo.
Data set [7] can be described thus: Volume of distribution at steady state in rat at 2 mg/kg, iv or 6 mg/kg, po. It counts as ADME, organism-based. The conditions noted are these: in vivo, read-out: Vdss.
Data set [8] can be described thus: Volume of distribution at steady state in dog at 1 mg/kg, iv or 3 mg/kg, po. The data set is classed as ADME, organism-based, Canis lupus familiaris. The conditions noted are these: in vivo, read-out: Vdss.
A short description of data set [9]: Volume of distribution at steady state in cynomolgus monkey at 1 mg/kg, iv or 3 mg/kg, po. It counts as ADME, organism-based, Macaca fascicularis. The conditions noted are these: in vivo, read-out: Vdss.
Data set [10] is described as follows: AUC in rat at 6 mg/kg, po. It counts as ADME, organism-based. The conditions noted are these: in vivo.
A short description of data set [11]: AUC in dog at 3 mg/kg, po. The data set is classed as ADME, organism-based, Canis lupus familiaris. The conditions noted are these: in vivo.
Data set [12] is described as follows: AUC in cynomolgus monkey at 3 mg/kg, po. The data set is classed as ADME, organism-based, Macaca fascicularis. The conditions noted are these: in vivo.
The nature of data set [13]: Oral bioavailability in rat at 6 mg/kg. The data set is classed as ADME, organism-based. The conditions noted are these: in vivo.
Data set [14] can be described thus: Oral bioavailability in dog at 6 mg/kg. The conditions noted are these: in vivo. It counts as ADME, organism-based, Canis lupus familiaris.
Data set [15] is described as follows: Oral bioavailability in cynomolgus monkey at […]. The data set is classed as ADME, organism-based, Macaca fascicularis. The conditions noted are these: in vivo.
In a further data set the target is Cytochrome P450 3A4 (Homo sapiens, UniProt P08684). As to the kind of experiment: Competitive inhibition of CYP3A4 in human liver microsomes in presence of NADPH by LC-MS/MS analysis. It counts as ADME. On the technique in general: Microsomes from liver hold many membrane-bound enzymes, among them those of drug oxidation.
Chain of Cytochrome P450 3A4 (P08684 whole entry): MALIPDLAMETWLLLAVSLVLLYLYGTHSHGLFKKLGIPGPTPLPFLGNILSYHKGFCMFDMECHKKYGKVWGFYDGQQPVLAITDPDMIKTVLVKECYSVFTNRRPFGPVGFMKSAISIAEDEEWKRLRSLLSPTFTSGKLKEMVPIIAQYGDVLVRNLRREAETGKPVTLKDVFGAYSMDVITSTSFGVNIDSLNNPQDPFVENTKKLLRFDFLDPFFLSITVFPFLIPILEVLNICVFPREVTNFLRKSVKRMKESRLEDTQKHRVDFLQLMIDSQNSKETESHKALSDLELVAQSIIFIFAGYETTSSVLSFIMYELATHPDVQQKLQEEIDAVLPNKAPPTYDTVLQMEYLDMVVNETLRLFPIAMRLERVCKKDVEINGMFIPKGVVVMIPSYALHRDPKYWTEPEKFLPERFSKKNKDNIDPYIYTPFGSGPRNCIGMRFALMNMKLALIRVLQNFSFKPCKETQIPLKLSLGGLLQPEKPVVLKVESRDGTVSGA

The EC50 is the concentration needed to bring the measured effect to its halfway point. Consider `[2H]C([2H])([2H])C(NC(=O)c1cccc(-c2cc3c(C(=O)NC)c(-c4ccc(F)cc4)oc3nc2CCC(F)(F)F)c1)(c1ncon1)C([2H])([2H])[2H]`, for which the EC50 was 146 nM in the data set on Hepatitis C virus [1] and 13 nM with Hepatitis C virus [2].

One may read the logD as lipophilicity at a set pH, counting ionised and neutral species. In data set [3], `CNC(=O)c1c(-c2ccc(F)cc2)oc2nc(CCC(F)(F)F)c(-c3cccc(C(=O)NC(C)(C)c4ncon4)c3)cc12` showed a logD of 4.43.

The term AUC denotes the area under the concentration-time curve, a measure of exposure. What is called bioavailability is dose-corrected exposure relative to a reference, in per cent. For the compound `[2H]C([2H])([2H])Oc1ncc(-c2cc3c(C(=O)NC)c(-c4ccc(F)cc4)oc3nc2CCC(F)(F)F)cc1C(=O)NC(c1ncon1)(C([2H])([2H])[2H])C([2H])([2H])[2H]`, the clearance in data set [4] stood at 1.6 mL/min/kg; in [5], 1 mL/min/kg; in data set [6], 4.7 mL/min/kg. For the same compound, the Vd in data set [7] stood at 11 L/kg; in data set [8], 2.1 L/kg; in data set [9] it was 2.3 L/kg. The AUC in data set [10] came out at 95 µM·h; in [11] it was 125 µM·h; in data set [12] it was 16 µM·h. Besides, the bioavailability in [13] is 100%; in [14], 90%; in [15], 85%. Also, in data set [3], the log distribution coefficient (logD) is 3.73.

For orientation: IC50 means the concentration that inhibits the measured activity by half. As to `CNC(=O)c1c(-c2ccc(F)cc2)oc2nc(CCC(F)(F)F)c(-c3cc(C(=O)NC(C)(C)c4ncon4)c(=O)n(C)c3)cc12`, at Cytochrome P450 3A4, the IC50 is 440 nM.

The values are drawn from ChEMBL document CHEMBL4033773, “Improving Metabolic Stability with Deuterium: The Discovery of BMT-052, a Pan-genotypic HCV NS5B Polymerase Inhibitor” (ACS Med Chem Lett, 2017).
